Counter-ions that a name gives are not always drawn.
Assays:
[1] = ref Lukesh et al., 2012; cited from earlier work
[2] = biological target: T1, PfLipL1 (Plasmodium falciparum, UniProt Q8IEG9); assay: biochemical; format: binding; settings: KD TSA, Kd calculated at 37 °C
[3] = test system: malaria parasite; settings: treatment with lipoate analogs; ref Allary et al., 2007; Afanador et al., 2014; cited from earlier work
[4] = biological target: T1, PfLipL1; assay: biochemical; format: binding; settings: KD ITC
[5] = reducing conditions, + TCEP (5 mM)
[6] = non-reducing conditions (no reducing agent)

T1 sequence (Q8IEG9 19-408): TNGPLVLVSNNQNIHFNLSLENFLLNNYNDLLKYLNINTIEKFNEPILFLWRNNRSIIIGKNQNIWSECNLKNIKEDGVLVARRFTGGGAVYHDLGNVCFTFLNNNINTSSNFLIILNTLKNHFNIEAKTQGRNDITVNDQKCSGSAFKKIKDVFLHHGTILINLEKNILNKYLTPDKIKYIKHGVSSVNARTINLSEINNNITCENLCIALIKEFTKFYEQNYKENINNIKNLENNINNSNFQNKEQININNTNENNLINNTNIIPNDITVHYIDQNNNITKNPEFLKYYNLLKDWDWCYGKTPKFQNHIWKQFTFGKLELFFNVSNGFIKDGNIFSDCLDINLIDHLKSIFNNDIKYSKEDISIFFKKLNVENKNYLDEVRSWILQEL

| Compound | Kd [2, 5] [nM] | Kd [2, 6] [nM] | also measured |
| --- | --- | --- | --- |
| O[C@@H](CS)[C@@H](O)CS (racemic) [DTT, dithiothreitol] |  |  | pKa [1]: 9.3 |
| O=C(O)CCCC[C@@H](S)CCS (racemic) [Lipoate + TCEP, dihydrolipoate] | 94000 ± 30000 |  |  |
| O=C(O)CCCCC(Cl)CCCl (stereo not shown) [6,8-diClO, 6,8-dichlorooctanoate] | 18000 ± 1000 | 13000 ± 4000 | parasite cell growth inhibition [3]: causes parasite cell growth inhibition |
| Nc1ncnc2c1ncn2[C@@H]1O[C@H](COP(=O)(O)OC(=O)CCCCC(Cl)CCCl)[C@@H](O)[C@H]1O (stereo partly drawn) [6,8-diClO-AMP, 6,8-dichlorooctanoic (((2R,3S,4R,5R)-5-(6-amino-9H-purin-9-yl)-3,4-dihydroxytetrahydrofuran-2-yl)methylphosphoric) anhydride monosodium salt] | 250 ± 20 | 90 ± 30 | Kd ([4]; non-reducing conditions): 100 ± 30 nM; Kd ([4]; reducing conditions, + TCEP): 500 ± 200 nM |
| O=C(O)CCCCCCCBr [8-BrO, 8-bromooctanoate] |  |  | parasite cell growth inhibition [3]: causes parasite cell growth inhibition |
| Nc1ncnc2c1ncn2[C@@H]1O[C@H](COP(=O)(O)OC(=O)CCCC[C@@H](S)CCS)[C@@H](O)[C@H]1O [Lipoyl-AMP + TCEP, dihydrolipoyl-AMP] | 5800 ± 400 |  |  |
| Nc1ncnc2c1ncn2[C@@H]1O[C@H](COP(=O)(O)OC(=O)CCCC[C@@H]2CCSS2)[C@@H](O)[C@H]1O [Lipoyl-AMP, (R)-5-(1,2-dithiolan-3-yl)pentanoic (((2R,3S,4R,5R)-5-(6-amino-9H-purin-9-yl)-3,4-dihydroxytetrahydrofuran-2-yl)methylphosphoric) anhydride monosodium salt] |  | 20 ± 5 | Kd ([4]; non-reducing conditions): 65 ± 5 nM |
